These results are taken from US20100144868A1, “Novel Neuroprotective Compounds and Uses Thereof” (Ramot At Aviv University Ltd., priority 2005, published 2010).

Entries after “also recorded” stand apart in the source; their conditions may differ. Like-named read-outs stand apart in the source and are kept apart here. Marks after values point to notes of the source that are not given here.

Data set [1] has as its system MOG-induced EAE in NOD mice. Briefly: Efficacy in MOG-induced EAE in NOD mice, Compound 20 at two doses compared to NBQX, daily from day 23. Format: in vivo. The method, then:
(§1) Mice were immunized S.C. with 150 μg of MOG 35-55 peptide in […].
(§2) Pertussis toxin was given I.V. (150 ng per mouse) at the time of immunization and 48 hours later. The severity of disease was evaluated daily on the following scale: 0 for no clinical symptoms; 1 for distal tail weakness or tail atonia; 2 for impaired righting reflex and slight hind limb paralysis; 3 for complete paralysis affecting of both hind limbs; 4 for complete paralysis affecting of both hind limbs and fore limb weakness, or moribund state; and 5 for death.

Data set [2] has as its system MOG-induced EAE in NOD mice. Briefly: Efficacy in MOG-induced EAE in NOD mice, daily treatment from day 20 to day 70. The settings on record: for Phase II Second Peak Mean Score Disease / Phase III Third Peak Mean Score Disease / Phase IV Secondary Progressive Mean Score Disease: scale 0-5; for Phase IV Secondary Progressive Mean Score Disease: day 70; for Cumulative Score: days 21-70; for Prevalence of Disease with score above 1.5: treated daily from day 20 after immunization to day 70; for Severity of EAE (in words): compared to carboxyfullerene treated and vehicle (PBS) treated mice, Table 3, FIG. 3. In kind it is in vivo. The method, then:
Non-obese diabetic (NOD) mice were purchased from Jackson laboratories. The mice were maintained in viral antibody-free (VAF) facility at Harvard Institutes of Medicine animal care facility and used at 10 weeks of age.
Myelin oligodendrocyte glycoprotein (MOG 35-55) was synthesized at the peptide/protein facility at the center for neurologic disease at BWH, Boston, Mass., USA.
as §1, §2

The conditions of data set [3]: for Increase of maximal aqueous solubility: with a 10 fold increase in DMSO content.
Protocol: 20 mg of each of the tested hybrid compounds of the present invention was dissolved in 0.2 ml of DMSO and then diluted with 200 ml, 40 ml, 20 ml and 10 ml of water to obtain a 0.1%, 0.5% 0.1% and 2.0% DMSO content in the aqueous solution, respectively. Each aqueous solution was sonicated for 2 minutes, filtered through 0.2 micron filter and centrifuged at 14,000 rpm for 3 minutes. UV-VIS spectra were obtained thereafter at 476 nm to determine the solubilized fraction of the tested hybrid compound.
The test system of data set [4] is spinal cord of EAE-induced NOD mice. Briefly: Histological staining of spinal cord sections of EAE-induced NOD mice (Bielschowsky silver, Luxol fast blue). In kind it is in vivo. The procedure: The attenuation of EAE progress in model animals was further tested by following pathological findings thereof in 7 μm coronal spinal cord section samples of the tested mice under cryogenic conditions. The axonal pathology analysis was performed on day 63 post-immunization by immunostaining of spinal cord sections. Spinal cord sections from mice were fixed in 4% paraformaldehyde overnight followed by 4.5% sucrose for 4 hours, then 20% sucrose for overnight at 4° C. Spinal cord sections were frozen and stored until used at −80° C.
Histological staining studies of spinal cord sections were preformed according to the Bielschowsky silver staining method, which specifically stains nerve fibers and axons so as to appear in black when observed under an optical microscope, and according to the Luxol fast blue staining method, which specifically stains myelin/myelinated axons so as to stain the myelin in blue-green while the neuron remains pink when observed under an optical microscope. Reduction in the degree of staining expresses damage to the neuron.
The Bielschowsky silver staining was performed as described before in Litchfield and Nagy, Acta Neuropathol (Berl) 2001, 101(1), pp. 17-21. Briefly, spinal cord sections were place in pre-warmed solution of 10% silver nitrate placed in a 40° C. oven and shaken for 15 minutes until sections became light brown in color, and thereafter rinsed in water. The spinal cord sections were thereafter placed back in the same ammonium silver solution and placed in a 40° C. oven for additional 30 minutes and rinse in water followed by dehydration in 95% ethyl alcohol, absolute alcohol and xylene.
The Luxol fast blue staining was perform as described before in Dolcetta et al J Neurosci Res.; 81(4):597-604. Briefly, spinal cord sections were placed in luxol fast blue solution in a 56° C. oven for 16 hours and rinsed with 95% ethyl alcohol and distilled water. Thereafter the spinal cord sections were placed in carbonate solution for 30 seconds and rinsed in water followed by dehydration in 95% ethyl alcohol, absolute alcohol and xylene. […]

[5] abbreviates: 0.1% DMSO content in final aqueous solution.
Setting [6] is: 0.5% DMSO content in final aqueous solution.

`NS(=O)(=O)c1cccc2c1c([N+](=O)[O-])cc1nc(O)c(O)nc12` [NBQX, 2,3-dihydroxy-6-nitro-7-sulfamoyl-benzo(f)quinoxaline, reference compound]: in data set [1] (30 mg/Kg daily from day 23), the Death is given as 6/14. Moreover, the “Phase II Second Peak Mean Score Disease” value in data set [1] (30 mg/Kg daily from day 23, day 37) was 1.75; in data set [1] (30 mg/Kg daily from day 23, day 41), 1.88. The “Phase III Secondary Progressive Mean Score Disease” value in data set [1] (30 mg/Kg daily from day 23, day 62) is given as 3.31; in data set [1] (30 mg/Kg daily from day 23, day 63), 3.38. Also, in data set [1] (30 mg/Kg, Table 4, FIG. 4), the “Suppression of the second phase of EAE (in words)” value is “showed a tendency to suppress the second phase of EAE”. In data set [1] (NBQX 30 mg/Kg compared to Compound 20 at 30 and 300 μg/Kg), the “Preventing the chronic disease progression (in words)” value is recorded as “not as effective as the Compound 20”.
With `O=C(O)C1(C(=O)O)C2=C1C1C3C4=c5c6c7c8c(c9c(c%10c%11c%12c%13c%14c%15c%16c(c2c3c%16c5c%14c6c%12c%108)C=CC%152C(C(=O)O)(C(=O)O)C%132C=C%11)C9(C(=O)O)C(=O)O)C2C=CC1C4C72` (stereo not drawn) [Carboxyfullerene, C3-stereoisomer of trimalonic acid derivative of a C60 fullerene, reference compound], the “Phase II Second Peak Mean Score Disease” value in data set [2] (day 26) came out at 1.00. Further, the “Phase II Second Peak Mean Score Disease” value in data set [2] (day 27) was found to be 0.85. Further, the “Phase III Third Peak Mean Score Disease” value in data set [2] (day 31) was found to be 1.15. In data set [2] (day 38), the “Phase III Third Peak Mean Score Disease” value worked out at 1.45. In addition, in data set [2], the “Phase IV Secondary Progressive Mean Score Disease” value turned out to be 2.65, the “Cumulative Score” value is recorded as 87.45 and the “Prevalence of Disease with score above 1.5” value (“Prevalence of Disease” for short) is given as 8/10.
Regarding “2,2-fullerenyl-malonic acid bis(adamantan-1-ylcarbamate-diethyleneglycol) ester [Compound 16]”, the “Increase of maximal aqueous solubility” value in data set [3] was found to be 20 fold.
For the compound “2,2-fullerenyl-malonic acid bis(adamantan-1-ylcarbamate-tetraethyleneglycol) ester [Compound 6]”, the results for the Maximal aqueous concentration in data set [3] (setting [5]), in data set [3] (setting [6]) and in data set [3] (2.0% DMSO content in final aqueous solution) were 1.18 10^−5 M, 1.38 10^−5 M and 0.036 mg/mL, respectively. The “Increase of maximal aqueous solubility” value in data set [3] is listed as “more than 2.6 fold”. Further, the “Severity of EAE (in words)” value in data set [2] is on record as “clearly reduce the severity of relapsing-remitting EAE; also recorded: reduction in severity of the disease”. Also, the “Phase II Second Peak Mean Score Disease” value in data set [2] (day 26) is listed as 0.75*; in data set [2] (day 27) it was 0.80. Besides, the “Phase III Third Peak Mean Score Disease” value in data set [2] (day 31) is reported as 0.90*; in data set [2] (day 38), 1.30. Besides, the “Phase IV Secondary Progressive Mean Score Disease” value in data set [2] is 2.85. Moreover, in data set [2], the “Cumulative Score” value was found to be 90.6. The “Prevalence of Disease” value in data set [2] is listed as 9/10.
As to “2,2-fullerenyl-malonic acid bis(adamantan-1-ylcarbamate-poly(n)ethyleneglycol) ester wherein average n=10 [Compound 20]”, the “Severity of the disease, mean disease score (in words)” value in data set [1] (30 μg/Kg and 300 μg/Kg, compared to NBQX treated and untreated mice, FIG. 4) is reported as “reduction in severity of the disease”. Besides, the Death in data set [1] (30 μg/Kg daily from day 23) is 0/14; in data set [1] (300 μg/Kg daily from day 23), 2/14. Also, the “Phase II Second Peak Mean Score Disease” value is on record as 1.60* in data set [1] (30 μg/Kg daily from day 23, day 37); 1.50* in data set [1] (30 μg/Kg daily from day 23, day 41); 2.25 in data set [1] (300 μg/Kg daily from day 23, day 37); 2.25 in data set [1] (300 μg/Kg daily from day 23, day 41); 0.70* in data set [2] (day 26); 0.55* in data set [2] (day 27). In addition, the “Phase III Secondary Progressive Mean Score Disease” value in data set [1] (30 μg/Kg daily from day 23, day 62) is 2.12*; in data set [1] (30 μg/Kg daily from day 23, day 63) it was 2.15*; in data set [1] (300 μg/Kg daily from day 23, day 62), 3.08; in data set [1] (300 μg/Kg daily from day 23, day 63), 3.17. Moreover, the “Protection from progression of chronic EAE (in words)” value in data set [1] (30 μg/Kg daily, compared to 300 μg/Kg) was “significantly protect progression of chronic EAE”. The “Severity of EAE (in words)” value in data set [2] was “clearly reduce the severity of relapsing-remitting EAE; also recorded: reduction in severity of the disease”. The results for the “Phase III Third Peak Mean Score Disease” value in data set [2] (day 31) and in data set [2] (day 38) were 0.60* and 0.65*, respectively. The “Cumulative Score” value in data set [2] was 53.0*. Also, the “Prevalence of Disease” value in data set [2] is given as 4/10. The “Axonal density / axonal damage in white matter of spinal cord (in words)” value in data set [4] (Bielschowsky silver impregnation, day 63 post-immunization, compared to untreated control mice, FIG. 5) is recorded as “reduction of EAE-derived axonal damage; also recorded: lower reduction in axonal density”. For the same compound, the “Demyelination of axons in white matter of spinal cord (in words)” value in data set [4] (Luxol fast blue staining, compared to untreated control mice, FIG. 6) is given as “reduction in demyelination of axons”. The “Progression of chronic EAE as damage to neurons (in words)” value in data set [4] (treatment initiated after disease onset, FIGS. 5 and 6) is reported as “lesser damage caused to the neurons”.
With “2,2-fullerenyl-malonic acid bis(adamantan-1-ylcarbamate-poly(n)ethyleneglycol) ester wherein average n=10 [Compound 19]”, the Maximal aqueous concentration in data set [3] (setting [5]) was 1.17 10^−5 M; in data set [3] (setting [6]) it was 5.12 10^−5 M; in data set [3] (1.0% DMSO content in final aqueous solution), 6.97 10^−5 M. The “Increase of maximal aqueous solubility” value in data set [3] is 6 fold.
